Results from US20150284399A1, “PROCESSES FOR THE PREPARATION OF S1P1 RECEPTOR MODULATORS AND CRYSTALLINE FORMS THEREOF” (Arena Pharmaceuticals, Inc., priority 2010, published 2015).
Where two headings read alike, the source gives them in different places.

Legend:
S1P4 receptor = target: T1, S1P4 receptor (Homo sapiens, UniProt O95977); settings: Chiba 2005; cited from earlier work
T1 sequence (O95977 1-384): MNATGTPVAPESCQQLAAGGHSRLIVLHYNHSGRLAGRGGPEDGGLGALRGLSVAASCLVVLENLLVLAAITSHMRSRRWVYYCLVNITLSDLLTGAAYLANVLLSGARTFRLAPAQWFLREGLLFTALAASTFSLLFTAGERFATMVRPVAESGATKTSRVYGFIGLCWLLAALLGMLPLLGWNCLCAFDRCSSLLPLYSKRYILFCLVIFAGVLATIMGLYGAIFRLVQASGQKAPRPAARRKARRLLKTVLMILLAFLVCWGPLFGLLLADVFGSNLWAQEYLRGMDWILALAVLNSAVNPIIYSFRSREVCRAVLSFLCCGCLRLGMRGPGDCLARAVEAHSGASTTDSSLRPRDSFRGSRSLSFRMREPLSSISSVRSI

S1P2 receptor = S1P2 receptor (Homo sapiens, UniProt O95136); settings: Chiba 2005; cited from earlier work
Chain of S1P2 receptor (O95136 whole entry): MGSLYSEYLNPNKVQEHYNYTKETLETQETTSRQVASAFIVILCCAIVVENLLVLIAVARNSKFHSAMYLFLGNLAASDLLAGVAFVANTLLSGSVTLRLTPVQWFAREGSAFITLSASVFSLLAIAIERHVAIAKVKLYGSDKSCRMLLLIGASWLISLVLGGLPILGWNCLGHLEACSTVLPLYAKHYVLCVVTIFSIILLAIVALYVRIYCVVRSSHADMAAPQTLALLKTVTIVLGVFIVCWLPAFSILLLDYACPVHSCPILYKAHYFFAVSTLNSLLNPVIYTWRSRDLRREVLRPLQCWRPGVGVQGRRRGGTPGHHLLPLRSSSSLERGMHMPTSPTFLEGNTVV

S1P5 receptor = S1P5 receptor (Homo sapiens, UniProt Q9H228); settings: Chiba 2005; cited from earlier work
Chain of S1P5 receptor (Q9H228 whole entry): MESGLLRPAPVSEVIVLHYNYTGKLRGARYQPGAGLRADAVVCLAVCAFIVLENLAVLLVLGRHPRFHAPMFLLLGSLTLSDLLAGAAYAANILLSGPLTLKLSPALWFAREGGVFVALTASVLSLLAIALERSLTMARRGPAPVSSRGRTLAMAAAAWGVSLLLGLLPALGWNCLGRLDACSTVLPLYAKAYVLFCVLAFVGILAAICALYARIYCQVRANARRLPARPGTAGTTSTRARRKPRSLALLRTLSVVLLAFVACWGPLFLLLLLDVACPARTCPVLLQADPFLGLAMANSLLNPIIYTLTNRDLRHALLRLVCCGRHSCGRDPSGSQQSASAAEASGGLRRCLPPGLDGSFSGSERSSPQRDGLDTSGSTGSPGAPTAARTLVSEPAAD

vasculature = settings: Bolick et al. 2005; cited from earlier work
[1] = system: type I diabetic vascular endothelium; settings: Whetzel et al. 2006; cited from earlier work
[2] = organ transplantation; cited from earlier work
[3] = system: rat cardiac allograft model; settings: cited from earlier work
[4] = Dynamic moisture sorption (DMS); format: physicochemical; settings: crystalline form
Description: Samples are prepared for dynamic moisture-sorption analysis by placing ˜5 mg to ˜20 mg of compound in a tarred sample holder on the VTI balance. The instrument is a dynamic moisture-sorption analyzer, VTI Corporation, SGA-100. A drying step is run at 40° C. and ˜1% RH for 1 h. The isotherm temperature is 25° C. A % weight change over 10 min (5 weight readings) of dm/dt=0.010 or 2 h, whichever occurs first, is required before continuing to the next step. The water content of the sample equilibrated as described above was determined from 30% RH to 90% RH and then back down to 10% RH.

Male BALB/c mice = assay: Mouse Peripheral Lymphocyte Lowering (PLL) assay; format: in vivo; settings: 0.300 mg/kg oral dose in 0.5% methyl cellulose in water; 5 hours post-dose; vs vehicle; FIG. 15
Description: Male BALB/c mice (Charles River Laboratories, Wilmington, Mass.) were housed four per cage and maintained in a humidity-controlled (40 to 60%) and temperature-controlled (68 to 72° F.) facility on a 12 h: 12 h light/dark cycle (lights on at 6:30 am) with free access to food (Harlan Teklad, Orange, Calif., Rodent Diet 8604) and water. Mice were allowed (approximately) one week of habituation to the animal facility before testing.
Mice were given a 0.300 mg/kg oral dose of (R)-2-(9-chloro-7-(4-isopropoxy-3-(trifluoromethyl)benzyloxy)-2,3-dihydro-1H-pyrrolo[1,2-a]indol-1-yl)acetic acid L-lysine salt or dosing vehicle (0.5% methyl cellulose in water) in a total volume of 10 mL/kg. Peripheral blood samples were collected at 5 hours post-dose. The mice were anesthetized with isoflurane and blood was collected via cardiac puncture. A complete cell count (CBC), including lymphocyte count, was obtained using a CELL-DYN® 3700 (Abbott Laboratories, Abbott Park, Ill.) instrument. Results are presented in FIG. 15, in which peripheral blood lymphocyte (PBL) count is shown for the 5 hour group.

Female C57BL/6 mice = assay: MOG-induced experimental autoimmune encephalomyelitis (EAE) in mice; format: in vivo, mouse; settings: oral, once a day from day 3 until day 21; 0.1, 0.3 and 1.0 mg/kg; vs vehicle; FIG. 17
[5] = system: rat model for autoimmune myocarditis; settings: cited from earlier work
[6] = system: rat renal allograft model; settings: combination with mycophenolate mofetil (MMF); cited from earlier work
rat skin allograft model = settings: monotherapy; cited from earlier work
[7] = attributed to agonism of the S1P3 receptor; cited from earlier work
[8] = unlike cyclosporin A, FK506 and RAD; cited from earlier work
human islet cells = settings: cited from earlier work
keratinocytes = settings: Kim et al. 2004; cited from earlier work

CCCCCCCCc1ccc(CCC(N)(CO)COP(=O)(O)O)cc1 (centres unmarked) [phosphorylated derivative]
agonist activity on S1P4 receptor (S1P4 receptor): agonist | agonist activity on S1P2 receptor (S1P2 receptor): not the S1P2 receptor | agonist activity on S1P5 receptor (S1P5 receptor): agonist

FC(F)(F)c1cccc(-c2noc(-c3cc(-c4ccccc4)c(C(F)(F)F)s3)n2)c1 [SEW2871]
protection against TNFα-mediated monocyte/endothelial interactions (vasculature): protects the vasculature against TNFα-mediated monocyte/endothelial interactions | proinflammatory monocyte/endothelial interactions [1]: prevents proinflammatory monocyte/endothelial interactions

C=CC[C@@H]1/C=C(\C)C[C@H](C)C[C@H](OC)[C@H]2O[C@@](O)(C(=O)C(=O)N3CCCC[C@H]3C(=O)O[C@H](/C(C)=C/[C@@H]3CC[C@@H](O)[C@H](OC)C3)[C@H](C)[C@@H](O)CC1=O)[C@H](C)C[C@@H]2OC [FK506]
undesirable side effects [2]: nephrotoxicity, neurotoxicity, β-cell toxicity and gastrointestinal discomfort

O=C(O)CCNCc1ccc2sc(-c3ccc(-c4ccccc4)c(C(F)(F)F)c3)cc2c1 [AUY954]
prolonging allograft survival ([3]; combination with a subtherapeutic dose of RAD001): can prolong rat cardiac allograft survival

CC(C)Oc1ccc(COc2ccc3c(c2)c(Cl)c2n3CC[C@@H]2CC(=O)[O-])cc1C(F)(F)F.O.[Na+] [(R)-2-(9-chloro-7-(4-isopropoxy-3-(trifluoromethyl)benzyloxy)-2,3-dihydro-1H-pyrrolo[1,2-a]indol-1-yl)acetic acid sodium salt hydrate]
DMS weight gain at about 90% relative humidity ([4]; from about 30% RH to about 90% RH at 25° C.): FIG. 9: gains about 2.5% weight at about 90% relative humidity

(R)-2-(9-Chloro-7-(4-isopropoxy-3-(trifluoromethyl)benzyloxy)-2,3-dihydro-1H-pyrrolo[1,2-a]indol-1-yl)acetic acid L-lysine salt
peripheral blood lymphocyte (PBL) lowering (lymphopenia) (Male BALB/c mice): exhibited activity for inducing PBL lowering (lymphopenia) | reduction of the severity of disease symptoms (clinical score) in EAE (Female C57BL/6 mice): exhibits therapeutic efficacy in EAE | DMS weight gain at a 90% RH hold ([4]; 90% RH hold at 25° C.): FIG. 6: gains less than about 2.2% weight at a 90% RH hold at | DMS weight gain after adsorption cycle to about 90% RH followed by desorption cycle back to about 10% RH [4]: 25° C.; gains less than about 0.25% weight after undergoing a

NC(CO)(CO)CCc1ccc(Sc2cccc(OCc3ccccc3)c2)cc1Cl [KRP-203]
therapeutic efficacy [5]: therapeutic efficacy | prolonging allograft survival [6]: therapeutic efficacy in combination with mycophenolate mofetil | prolonging allograft survival (rat skin allograft model): therapeutic efficacy for prolonging allograft survival | prolonging allograft survival ([3]; combination with cyclosporin A): synergistic combination with cyclosporin A | prolonging allograft survival ([3]; combination with mycophenolate mofetil (MMF)): therapeutic efficacy in combination with mycophenolate mofetil | prolonging allograft survival ([3]; monotherapy): therapeutic efficacy for prolonging allograft survival

CC(C)Oc1ccc(COc2ccc3c(c2)c(Cl)c2n3CC[C@@H]2CC(=O)O)cc1C(F)(F)F.NCCN.O [(R)-2-(9-chloro-7-(4-isopropoxy-3-(trifluoromethyl)benzyloxy)-2,3-dihydro-1H-pyrrolo[1,2-a]indol-1-yl)acetic acid ethylenediamine salt hydrate]
DMS weight gain after adsorption cycle to about 90% RH followed by desorption cycle back to about 10% RH [4]: 25° C.; gains less than about 1.5% weight after undergoing

CCCCCCCCc1ccc(CCC(N)(CO)CO)cc1 [FTY720, fingolimod]
adverse event in clinical trials [7]: transient asymptomatic bradycardia | general immunosuppression while prolonging graft survival [8]: without inducing general immunosuppression | effects on human islet function (human islet cells): no detrimental effects on human islet function

CCCCCCCCCCCCC/C=C/[C@@H](O)[C@@H](N)COP(=O)(O)O [Compound S1P, sphingosine-1-phosphate]
keratinocyte proliferation (keratinocytes): inhibits keratinocyte proliferation
